Data on 22 compounds can be found in US7915270B2, “Oxazole ketones as modulators of fatty acid amide hydrolase” (The Scripps Research Institute, priority 2006, dated 2011).

The target in assay [1] is T1, FAAH (Homo sapiens, UniProt O00519).
T1 sequence (O00519 1-579): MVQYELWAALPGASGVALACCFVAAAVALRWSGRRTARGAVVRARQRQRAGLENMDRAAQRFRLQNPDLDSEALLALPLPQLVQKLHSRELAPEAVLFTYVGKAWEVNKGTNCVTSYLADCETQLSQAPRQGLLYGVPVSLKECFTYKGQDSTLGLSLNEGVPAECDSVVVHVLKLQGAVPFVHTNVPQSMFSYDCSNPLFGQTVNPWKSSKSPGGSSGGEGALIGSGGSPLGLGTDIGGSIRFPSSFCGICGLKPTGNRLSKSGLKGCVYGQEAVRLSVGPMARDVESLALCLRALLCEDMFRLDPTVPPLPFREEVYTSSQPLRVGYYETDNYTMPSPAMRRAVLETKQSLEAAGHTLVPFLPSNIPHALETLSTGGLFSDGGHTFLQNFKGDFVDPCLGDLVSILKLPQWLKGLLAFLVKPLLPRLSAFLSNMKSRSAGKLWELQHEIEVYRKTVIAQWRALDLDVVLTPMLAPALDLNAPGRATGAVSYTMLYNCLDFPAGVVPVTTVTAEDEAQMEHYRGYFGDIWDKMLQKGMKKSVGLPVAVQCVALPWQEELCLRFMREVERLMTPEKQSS
Kind of assay: Assay Method 1B: FAAH assay, 3H-anandamide hydrolysis in cell homogenate (T84 or SK-N-MC cells transfected with human FAAH). More on the design: expressed in transfected cells. It counts as biochemical. Particulars: 3H-AEA 80 nM, rt 1 h, pH 9. The protocol:
Transfection of Cells with Human FAAH A 10-cm tissue culture dish with a confluent monolayer of SK—N-MC cells was split 2 days (d) prior to transfection. Using sterile technique, the media was removed and the cells were detached from the dish by the addition of trypsin. One fifth of the cells were then placed onto a new 10-cm dish. Cells were grown in a 37° C. incubator with 5% CO2 in Minimal Essential Media Eagle with 10% Fetal Bovine Serum. After 2 d, cells were approximately 80% confluent. These cells were removed from the dish with trypsin and pelleted in a clinical centrifuge. The pellet was re-suspended in 400 μL complete media and transferred to an electroporation cuvette with a 0.4 cm gap between the electrodes. Supercoiled human FAAH cDNA (1 μg) was added to the cells and mixed. The voltage for the electroporation was set at 0.25 kV, and the capacitance was set at 960 μF. After electroporation, the cells were diluted into complete media (10 mL) and plated onto four 10-cm dishes. Because of the variability in the efficiency of electroporation, four different concentrations of cells were plated. The ratios used were 1:20, 1:10, and 1:5, with the remainder of the cells being added to the fourth dish. The cells were allowed to recover for 24 h before adding the selection media (complete media with 600 μg/mL G418). After 10 d, dishes were analyzed for surviving colonies of cells. Dishes with well-isolated colonies were used. Cells from individual colonies were isolated and tested. […] The reaction mixture was incubated at rt for 1 h. During the incubation, 96-well Multiscreen filter plates (catalog number MAFCNOB50; Millipore, Bedford, Mass., USA) were loaded with 25 μL of activated charcoal (Multiscreen column loader, catalog number MACL09625, Millipore) and washed once with 100 μL of MeOH. Also during the incubation, 96-well DYNEX MicroLite plates (catalog number NL510410) were loaded with 100 μL of MicroScint40 (catalog number 6013641, Packard Bioscience, Meriden, Conn., USA). After the 1 h incubation, 60 μL of the reaction mixture were transferred to the charcoal plates, which were then assembled on top of the DYNEX plates using Centrifuge Alignment Frames (catalog number MACF09604, Millipore). The unbound labeled ethanolamine was centrifuged through to the bottom plate (5 min at 2000 rpm), which was preloaded with the scintillant, as described above. The plates were sealed and left at rt for 1 h before counting on a Hewlett Packard TopCount.

For a further assay, the target named is T2, Rat FAAH (Rattus norvegicus, UniProt P97612).
T2 construct: expressed in transfected cells
T2 sequence (P97612 1-579): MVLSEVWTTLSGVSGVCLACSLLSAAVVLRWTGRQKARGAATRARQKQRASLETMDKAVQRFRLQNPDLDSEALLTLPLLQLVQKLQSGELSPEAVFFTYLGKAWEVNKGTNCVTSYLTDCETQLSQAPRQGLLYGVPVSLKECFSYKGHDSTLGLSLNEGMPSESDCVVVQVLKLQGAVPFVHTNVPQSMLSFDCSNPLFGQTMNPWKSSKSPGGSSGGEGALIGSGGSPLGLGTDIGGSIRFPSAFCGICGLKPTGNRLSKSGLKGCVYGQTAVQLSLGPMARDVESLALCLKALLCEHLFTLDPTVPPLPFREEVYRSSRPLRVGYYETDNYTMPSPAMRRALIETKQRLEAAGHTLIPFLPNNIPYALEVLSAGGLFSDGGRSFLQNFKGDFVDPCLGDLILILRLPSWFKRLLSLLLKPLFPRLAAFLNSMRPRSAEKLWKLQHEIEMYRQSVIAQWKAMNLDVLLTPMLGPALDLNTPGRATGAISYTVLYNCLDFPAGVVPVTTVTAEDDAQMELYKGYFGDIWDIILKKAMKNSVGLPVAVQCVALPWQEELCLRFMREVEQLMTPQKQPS
Kind of assay: Assay Method 2: FAAH assay, 3H-anandamide hydrolysis in cell homogenate (SK-N-MC cells transfected with rat FAAH). The class given is biochemical. The conditions noted are these: 3H-AEA 80 nM, rt 1 h, pH 9. The protocol: A. Transfection of Cells with Rat FAAH
A 10-cm tissue culture dish with a confluent monolayer of SK—N-MC cells was split 2 days (d) prior to transfection. Using sterile technique, the media was removed and the cells were detached from the dish by the addition of trypsin. One fifth of the cells were then placed onto a new 10-cm dish. Cells were grown in a 37° C. incubator with 5% CO2 in Minimal Essential Media Eagle with 10% Fetal Bovine Serum. After 2 d, cells were approximately 80% confluent. These cells were removed from the dish with trypsin and pelleted in a clinical centrifuge. The pellet was re-suspended in 400 μL complete media and transferred to an electroporation cuvette with a 0.4 cm gap between the electrodes. Supercoiled rat FAAH cDNA (1 μg) was added to the cells and mixed. The voltage for the electroporation was set at 0.25 kV, and the capacitance was set at 960 μF. After electroporation, the cells were diluted into complete media (10 mL) and plated onto four 10-cm dishes. Because of the variability in the efficiency of electroporation, four different concentrations of cells were plated. The ratios used were 1:20, 1:10, and 1:5, with the remainder of the cells being added to the fourth dish. The cells were allowed to recover for 24 h before adding the selection media (complete media with 600 μg/mL G418). After 10 d, dishes were analyzed for surviving colonies of cells. Dishes with well-isolated colonies were used. Cells from individual colonies were isolated and tested.
The assay mixture consisted of 50 μL of the cell homogenate, 10 μL of the test compound, and 40 μL of anandamide [1-^3H-ethanolamine] (^3H-AEA, Perkin-Elmer, 10.3 Ci/mmol), which was added last, for a final tracer concentration of 80 nM. The reaction mixture was incubated at rt for 1 h. During the incubation, 96-well Multiscreen filter plates (catalog number MAFCNOB50; Millipore, Bedford, Mass., USA) were loaded with 25 μL of activated charcoal (Multiscreen column loader, catalog number MACL09625, Millipore) and washed once with 100 μL of MeOH. […] After the 1 h incubation, 60 μL of the reaction mixture were transferred to the charcoal plates, which were then assembled on top of the DYNEX plates using Centrifuge Alignment Frames (catalog number MACF09604, Millipore). The unbound labeled ethanolamine was centrifuged through to the bottom plate (5 min at 2000 rpm), which was preloaded with the scintillant, as described above. The plates were sealed and left at rt for 1 h before counting on a Hewlett Packard TopCount.

The target of assay [2] is T3, FAAH (Rattus norvegicus, UniProt P97612).
T3 sequence (P97612 1-579): T2 sequence (P97612 1-579)
The assay can be described thus: Assay Method 1A: FAAH enzyme assay, 14C-oleamide hydrolysis, solubilized liver plasma membrane extract.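 Further: ki obtained by Dixon analysis, taking the x-intercept of inhibitor concentration versus reciprocal rate plots at fixed substrate level and correcting for substrate concentration relative to Km.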
Experimental: Linear least squares fits were used for all reaction progress curves and R^2 values were consistently >0.97. […] Ki values were determined by the Dixon Method (x-intercepts of weighted linear fits of [I] versus 1/rate plots at constant substrate concentration, which were converted to Ki values using the formula Ki=−xint/[1+[S]/Km]).

Broadly, the IC50 is the concentration at which inhibition is half-maximal. Read a high IC50 as weaker potency in that assay. As a reminder, the Ki is a measure of affinity in units of concentration, obtained from inhibition or displacement. Higher therefore signals lower affinity.

On to `O=C(CCCCCCc1ccccc1)c1ncc(-c2ccc([N+](=O)[O-])cc2)o1` [Example 3, 1-(5-(4-Nitrophenyl)oxazol-2-yl)-7-phenylheptan-1-one], for which the IC50 amounted to 110 nM against FAAH [1] and 500 nM against Rat FAAH.
The like results for `O=C(CCCCCCc1ccccc1)c1ncc(-c2cccc(C(=O)C(F)(F)F)c2)o1` [Example 5, 7-Phenyl-1-(5-(3-(2,2,2-trifluoroacetyl)phenyl)oxazol-2-yl)heptan-1-one] were, in that order, 40 nM and 500 nM.
As for `O=C(CCCCCCc1ccccc1)c1ncc(-c2ccc(C(=O)C(F)(F)F)cc2)o1` [Example 6, 7-Phenyl-1-(5-(4-(2,2,2-trifluoroacetyl)phenyl)oxazol-2-yl)heptan-1-one], the IC50 at FAAH [1] was 260 nM; on Rat FAAH, 1700 nM.
With `NC(=O)c1ccccc1-c1cnc(C(=O)CCCCCCc2ccccc2)o1` [Example 7, 2-(2-(7-Phenylheptanoyl)oxazol-5-yl)benzamide], the IC50 was determined as 160 nM against FAAH [1] and 1800 nM on Rat FAAH.
For the compound `NC(=O)c1cccc(-c2cnc(C(=O)CCCCCCc3ccccc3)o2)c1` [Example 8, 3-(2-(7-Phenylheptanoyl)oxazol-5-yl)benzamide], the IC50 on FAAH [1] came out at 12 nM; against Rat FAAH, 34 nM.
Consider `NC(=O)c1ccc(-c2cnc(C(=O)CCCCCCc3ccccc3)o2)cc1` [Example 9, 4-(2-(7-Phenylheptanoyl)oxazol-5-yl)benzamide], for which the IC50 on FAAH [1] is 10 nM; against Rat FAAH it was 60 nM.
For the compound `O=C(CCCCCCc1ccccc1)c1ncc(-c2ccc(F)cc2)o1` [Example 12, 1-(5-(4-Fluorophenyl)oxazol-2-yl)-7-phenylheptan-1-one], the IC50 came to 100 nM on FAAH [1] and 1000 nM against Rat FAAH.
In turn, `COc1ccccc1-c1cnc(C(=O)CCCCCCc2ccccc2)o1` [Example 13, 1-(5-(2-Methoxyphenyl)oxazol-2-yl)-7-phenylheptan-1-one] returned an IC50 against FAAH [1] of 1900 nM. Further, the affinity at FAAH [2], expressed as Ki, was 400 nM.
The corresponding values for `NS(=O)(=O)c1ccccc1-c1cnc(C(=O)CCCCCCc2ccccc2)o1` [Example 19, 2-(2-(7-Phenylheptanoyl)oxazol-5-yl)benzenesulfonamide] are 2000 nM and 1500 nM.
At FAAH [2], `COC(=O)c1ccnc(-c2cnc(C(=O)CCCCCCc3ccccc3)o2)c1` [Example 35, Methyl 2-(2-(7-phenylheptanoyl)oxazol-5-yl)isonicotinate] gave a Ki of 1 nM.
Consider `O=C(CCCCCCc1ccccc1)c1ncc(-c2ncccc2C(=O)O)o1` [Example 40, 2-(2-(7-Phenylheptanoyl)oxazol-5-yl)nicotinic acid], for which the Ki at FAAH [2] is above 50 nM.
Regarding `Cc1cccc(-c2cnc(C(=O)CCCCCCc3ccccc3)o2)n1` [Example 41, 1-(5-(6-Methylpyridin-2-yl)oxazol-2-yl)-7-phenylheptan-1-one], on FAAH [2], the affinity, expressed as Ki, was 3 nM.
As to `Cc1ccc(-c2cnc(C(=O)CCCCCCc3ccccc3)o2)nc1` [Example 42, 1-(5-(5-Methylpyridin-2-yl)oxazol-2-yl)-7-phenylheptan-1-one], the affinity on FAAH [2], expressed as Ki, was 3 nM.
As for `Cc1ccnc(-c2cnc(C(=O)CCCCCCc3ccccc3)o2)c1` [Example 43, 1-(5-(4-Methylpyridin-2-yl)oxazol-2-yl)-7-phenylheptan-1-one], the inhibition constant Ki on FAAH [2] was determined as 1 nM. This Ki is about 3-fold lower than that of the compound before.
The same measure, in the same setting: the figure for `Cc1cccnc1-c1cnc(C(=O)CCCCCCc2ccccc2)o1` [Example 44, 1-(5-(3-Methylpyridin-2-yl)oxazol-2-yl)-7-phenylheptan-1-one] is 15 nM; for `COc1ccnc(-c2cnc(C(=O)CCCCCCc3ccccc3)o2)c1` [Example 45, 1-(5-(4-Methoxypyridin-2-yl)oxazol-2-yl)-7-phenylheptan-1-one] it is 2 nM.
Consider `N#Cc1ccnc(-c2cnc(C(=O)CCCCCCc3ccccc3)o2)c1` [Example 46, 2-(2-(7-Phenylheptanoyl)oxazol-5-yl)isonicotinonitrile], for which the affinity on FAAH [2] corresponds to a Ki of 2 nM.
The same measure, in the same setting: the result for `O=C(CCCCCCc1ccccc1)c1ncc(-c2cc(C(F)(F)F)ccn2)o1` [Example 47, 7-Phenyl-1-(5-(4-(trifluoromethyl)pyridin-2-yl)oxazol-2-yl)heptan-1-one] reads 4 nM; that for `O=C(CCCCCCc1ccccc1)c1ncc(-c2cc([N+](=O)[O-])ccn2)o1` [Example 48, 1-(5-(4-Nitropyridin-2-yl)oxazol-2-yl)-7-phenylheptan-1-one], 3 nM.
Consider `Nc1ccnc(-c2cnc(C(=O)CCCCCCc3ccccc3)o2)c1` [Example 49, 1-(5-(4-Aminopyridin-2-yl)oxazol-2-yl)-7-phenylheptan-1-one], for which, at FAAH [2], the Ki was 25 nM.
Same read-out and setting: the figure for `COc1cc(-c2cnc(C(=O)CCCCCCc3ccccc3)o2)nc(OC)n1` [Example 51, 1-(5-(2,6-Dimethoxypyrimidin-4-yl)oxazol-2-yl)-7-phenylheptan-1-one] is 5 nM; for `COc1ncc(-c2cnc(C(=O)CCCCCCc3ccccc3)o2)c(OC)n1` [Example 53, 1-(5-(2,4-Dimethoxypyrimidin-5-yl)oxazol-2-yl)-7-phenylheptan-1-one] it is 26 nM.
